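Dose response: 5 concentrations. Exposure: 48 h. Format: 96-well plates. Endpoint: linear interpolation; highest concentration if not reached. Abbreviation: GI50, concentration required for 50% inhibition of growth. TGI: total growth inhibition.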
How the values were obtained:
Experiment in all cases: DTP human tumour cell line panel, 48 h
ACHN renal = test system: ACHN renal
UACC-257 melanoma = test system: UACC-257 melanoma
RPMI-8226 leukemia = test system: RPMI-8226 leukemia
HT29 colon = test system: HT29 colon
NCI-H226 lung = test system: NCI-H226 lung
TK-10 renal = test system: TK-10 renal
SF-295 CNS = test system: SF-295 CNS
CCRF-CEM leukemia = test system: CCRF-CEM leukemia
CAKI-1 renal = test system: CAKI-1 renal
UACC-62 melanoma = test system: UACC-62 melanoma
SR leukemia = test system: SR leukemia
IGROV1 ovarian = test system: IGROV1 ovarian

SMILES	TGI (ACHN renal)	TGI (UACC-257 melanoma)	TGI (RPMI-8226 leukemia)	TGI (HT29 colon)	TGI (NCI-H226 lung)	TGI (TK-10 renal)	TGI (SF-295 CNS)	TGI (CCRF-CEM leukemia)	TGI (CAKI-1 renal)	TGI (UACC-62 melanoma)	GI50 (ACHN renal)	GI50 (UACC-257 melanoma)	GI50 (RPMI-8226 leukemia)	GI50 (HT29 colon)	GI50 (NCI-H226 lung)	GI50 (TK-10 renal)	GI50 (CCRF-CEM leukemia)	GI50 (SR leukemia)	TGI (SR leukemia)	TGI (IGROV1 ovarian)
CCCCCCCCCCCCCCCC(=O)OCC1CCCN2CCCCC12 (centres undefined)	> 100 µM	> 100 µM	> 100 µM	> 100 µM	> 100 µM	> 100 µM	> 100 µM	> 100 µM	> 100 µM	> 100 µM	–	–	–	–	–	–	–	–	–	–
CC[C@H](Nc1nc(N)nc(C)c1C#N)c1nc2cccc(NCc3ccc(C(=O)NO)cc3)c2c(=O)n1-c1ccccc1	4.67 µM	6.2 µM	9.78 µM	4.88 µM	4.13 µM	6.88 µM	–	> 100 µM	–	–	1.94 µM	1.94 µM	2.27 µM	1.82 µM	1.61 µM	2.02 µM	0.679 µM	0.697 µM	> 100 µM	–
CCOC(=O)Nc1cc2c(c(N)n1)N=C(c1ccccc1)[C@H](C)N2	55 µM	–	22.4 µM	–	0.0464 µM	57.3 µM	–	0.0464 µM	–	21.2 µM	–	–	–	–	–	14.2 µM	–	–	–	> 100 µM
O=C(N/C(=C\c1cccc([N+](=O)[O-])c1)c1nc2[nH]c(=S)[nH]c(=O)c2[nH]1)c1ccccc1	> 100 µM	> 100 µM	> 100 µM	> 100 µM	> 100 µM	–	> 100 µM	> 100 µM	> 100 µM	> 100 µM	–	–	–	–	–	–	–	–	> 100 µM	> 100 µM
C/C(=N\Oc1cc(Cl)ncn1)c1ccccn1	> 100 µM	> 100 µM	> 100 µM	> 100 µM	> 100 µM	> 100 µM	> 100 µM	> 100 µM	57.5 µM	> 100 µM	–	–	–	–	–	–	–	–	> 100 µM	> 100 µM
NC(=S)Nc1cc(Cl)ccc1Cl	> 100 µM	> 100 µM	> 100 µM	> 100 µM	> 100 µM	> 100 µM	> 100 µM	> 100 µM	> 100 µM	> 100 µM	–	–	–	–	–	–	–	–	> 100 µM	> 100 µM
CC(=O)OC/C=C/Cn1ncc(=O)[nH]c1=O	> 100 µM	–	> 100 µM	> 100 µM	> 100 µM	–	–	–	> 100 µM	–	–	–	–	–	–	–	–	–	–	> 100 µM
CC(C)OC(=O)C1=C(O)c2ccccc2S(=O)(=O)N1	> 100 µM	> 100 µM	–	> 100 µM	> 100 µM	> 100 µM	> 100 µM	> 100 µM	> 100 µM	> 100 µM	–	–	–	–	–	–	–	–	–	> 100 µM
O=C(CCl)NC(Cc1ccc(F)cc1)C(=O)O (centres undefined)	–	> 100 µM	> 100 µM	> 100 µM	> 100 µM	–	> 100 µM	> 100 µM	> 100 µM	> 100 µM	–	–	–	–	–	–	–	–	–	> 100 µM
CCOC(=O)[C@H]1Nc2c(cccc2[N+](=O)[O-])[C@H]2OCC[C@@H]12	> 100 µM	86.1 µM	> 100 µM	> 100 µM	> 100 µM	> 100 µM	> 100 µM	–	> 100 µM	> 100 µM	–	–	–	–	–	–	–	–	> 100 µM	> 100 µM
Cc1ccc(C[P+]2(c3ccccc3)CCCCC2)cc1	> 100 µM	32.6 µM	46.8 µM	> 100 µM	> 100 µM	> 100 µM	> 100 µM	> 100 µM	–	66.2 µM	–	–	–	–	–	–	–	–	90.9 µM	> 100 µM
Cc1ccc(S(=O)(=O)N/N=c2\c(C)c(C3=NS(=O)(=O)c4cc(S(N)(=O)=O)c(Cl)cc4N3)oc3c(Cl)cc(Cl)cc23)cc1	> 100 µM	> 100 µM	> 100 µM	> 100 µM	> 100 µM	> 100 µM	> 100 µM	> 100 µM	> 100 µM	> 100 µM	–	–	–	–	–	–	–	–	> 100 µM	> 100 µM
COc1cc(N/N=C/C#N)cc(OC)c1OC	> 10 µM	–	5.68 µM	> 10 µM	> 10 µM	> 10 µM	> 10 µM	> 10 µM	> 10 µM	> 10 µM	–	–	–	–	–	–	–	–	> 10 µM	> 10 µM
O=C1Nc2ccccc2S/C1=C\c1ccccc1C(F)(F)F	> 100 µM	> 100 µM	> 100 µM	> 100 µM	> 100 µM	> 100 µM	> 100 µM	> 100 µM	> 100 µM	> 100 µM	–	–	–	–	–	–	–	–	> 100 µM	> 100 µM
CC1CCC(O)(C(C)(C(=O)O)c2ccccc2)CC1 (centres undefined)	> 100 µM	> 100 µM	–	> 100 µM	> 100 µM	> 100 µM	> 100 µM	> 100 µM	> 100 µM	> 100 µM	–	–	–	–	–	–	–	–	–	> 100 µM
Nc1nncc2c1ccn2C1OC(CO)C(O)C1O (centres undefined)	> 100 µM	> 100 µM	> 100 µM	> 100 µM	> 100 µM	> 100 µM	> 100 µM	> 100 µM	–	> 100 µM	–	–	–	–	–	–	–	–	> 100 µM	> 100 µM
O=C(O)NCc1ccccc1 (tested in a mixture with another compound)	> 100 µM	> 95.9 µM	31.1 µM	> 100 µM	> 79.7 µM	> 87.5 µM	> 100 µM	51.7 µM	> 100 µM	37.2 µM	–	–	–	–	–	–	–	–	12.8 µM	> 100 µM
C=C1CC[C@@H](Br)C(C)(C)[C@]12CCC(C)(O)C(Cl)C2 (some centres undefined)	36.4 µM	32.4 µM	40.2 µM	33.4 µM	31 µM	78.4 µM	43.1 µM	47.9 µM	32 µM	41.4 µM	–	–	–	–	–	–	–	–	–	44 µM
Cc1cc2c(cc1C)[n+](=O)c(C#N)c(Cl)n2[O-]	23.9 µM	27 µM	55.6 µM	19.7 µM	> 100 µM	27.9 µM	> 100 µM	45.3 µM	19.7 µM	29.6 µM	–	–	–	–	–	–	–	–	> 100 µM	33.3 µM
CCC1CN2CCC1CC2 (centres undefined)	–	> 100 µM	> 100 µM	> 100 µM	> 100 µM	–	> 100 µM	> 100 µM	–	> 100 µM	–	–	–	–	–	–	–	–	–	> 100 µM
CC(=O)O[C@H]1CC[C@@]2(C)C(=CC[C@@H]3[C@@H]2CC[C@]2(C)Nc4c(cnn4S(C)(=O)=O)C[C@@H]32)C1	–	–	> 100 µM	57 µM	> 100 µM	–	> 100 µM	> 100 µM	> 100 µM	> 100 µM	–	–	–	–	–	–	–	–	> 100 µM	> 100 µM

Reference: PubChem BioAssay (NCI)
